For data set [1], the system named is Botrytis cinerea. The experiment in a line: Test E: tomato Botrytis, spray on tomato seedlings, disease control rating. In kind it is in vivo. The settings on record: 100 = 100% disease control, 0 = no disease control relative to the controls; for pest or weed control at 10 ppm: Rate 10 ppm; for pest or weed control at 250 ppm: Rate 250 ppm. From the text: (§1) General protocol for preparing test suspensions for Tests A-F: the test compounds were first dissolved in acetone in an amount equal to 3% of the final volume and then suspended at the desired concentration (in ppm) in acetone and purified water (50/50 mix by volume) containing 250 ppm of the surfactant PEG400 (polyhydric alcohol esters). The resulting test suspensions were then used in Tests A-F.
The test suspension was sprayed to the point of run-off on tomato seedlings. The following day the seedlings were inoculated with a spore suspension of Botrytis cinerea (the causal agent of tomato Botrytis) and incubated in a saturated atmosphere at 20° C. for 48 h, and then moved to a growth chamber at 24° C. for 3 days, after which time visual disease ratings were made.
(§2) A rating of 100 indicates 100% disease control and a rating of 0 indicates no disease control (relative to the controls). A dash (-) indicates the compound was not tested.

The subject of data set [2] is Phakopsora pachyrhizi. The data set is described as follows: Test D: Asian soybean rust, spray on soybean seedlings, disease control rating. It is filed as in vivo. The settings on record: Phakopsora pachyrhizi, 216 h, 100 = 100% disease control, 0 = no disease control relative to the controls; for pest or weed control at 10 ppm: Rate 10 ppm; for pest or weed control at 250 ppm: Rate 250 ppm. In short, it runs like this:
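Soybean seedlings sprayed to run-off with compound suspension (ppm, in 50/50 acetone/water with 250 ppm PEG400), inoculated next day with P. pachyrhizi spores, held 24 h saturated at 22°C then 8 days at 22°C. Visual rating 0-100% disease control relative to controls.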

Data set [3] has as its system Blumeria graminis f. sp. tritici. The experiment in a line: Test C: wheat powdery mildew, spray on wheat seedlings, disease control rating. It is filed as in vivo. To be noted: 192 h, 100 = 100% disease control, 0 = no disease control relative to the controls; for pest or weed control at 10 ppm: Rate 10 ppm; for pest or weed control at 250 ppm: Rate 250 ppm.
From the text: as §1
The test suspension was sprayed to the point of run-off on wheat seedlings. The following day the seedlings were inoculated with a spore dust of Blumeria graminis f. sp. tritici, (also known as Erysiphe graminis f. sp. tritici, the causal agent of wheat powdery mildew) and incubated in a growth chamber at 20° C. for 8 days, after which time visual disease ratings were made.
as §2

The test system of data set [4] is Zymoseptoria tritici. The data set is described as follows: Test A: wheat leaf blotch, spray on wheat seedlings, disease control rating. In kind it is in vivo. The settings on record: 100 = 100% disease control, 0 = no disease control relative to the controls; for pest or weed control at 10 ppm: Rate 10 ppm; for pest or weed control at 250 ppm: Rate 250 ppm.
From the text: as §1
The test solution was sprayed to the point of run-off on wheat seedlings. The following day the seedlings were inoculated with a spore suspension of Zymoseptoria tritici (the causal agent of wheat leaf blotch) and incubated in a saturated atmosphere at 24° C. for 48 h, and then moved to a growth chamber at 20° C. for 17 days, after which time disease ratings were made.
as §2

The subject of data set [5] is Puccinia recondita f. sp. tritici. The experiment in a line: Test B: wheat leaf rust, spray on wheat seedlings, disease control rating. It is filed as in vivo. The settings on record: Puccinia recondita, 192 h, 100 = 100% disease control, 0 = no disease control relative to the controls; for pest or weed control at 10 ppm: Rate 10 ppm; for pest or weed control at 250 ppm: Rate 250 ppm. In short, it runs like this: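 Compound in acetone (3% of final volume) was suspended at the stated ppm in acetone/water 50/50 with 250 ppm PEG400 and sprayed to run-off on wheat seedlings. Puccinia recondita spores were inoculated next day, then 24 h saturated atmosphere at 20 °C and 7 days at 20 °C. Rated 0–100% disease control versus controls.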

Broadly, the pest or weed control is the degree to which the test organism was suppressed or injured, in per cent. A lower pest or weed control goes with weak suppression. The melting point is the temperature, or range, at which the solid turns liquid.

`COC(=O)NCc1cc(-c2ccn(-c3c(F)cc(OC)cc3F)n2)ccc1C` [Compound 3, methyl N-[[5-[1-(2,6-difluoro-4-methoxyphenyl)-1H-pyrazol-3-yl]-2-methylphenyl]methyl]carbamate]: the pest or weed control at 10 ppm stood at 45% in data set [1]; 100% in data set [2]; 79% in data set [3]; 50% in data set [4]; 100% in data set [5].
Regarding `COC(=O)NCc1cc(-c2ccn(-c3c(F)cc([N+](=O)[O-])cc3F)n2)ccc1C` [Compound 1, methyl N-[[5-[1-(2,6-difluoro-4-nitrophenyl)-1H-pyrazol-3-yl]-2-methylphenyl]methyl]carbamate], the pest or weed control at 10 ppm in data set [1] came out at 0%; in data set [2] it was 44%; in data set [3], 0%; in data set [4] it was 0%; in data set [5] it was 68%.
In turn, `CCOc1cc(F)c(-n2ccc(-c3ccc(C)c(CNC(=O)OC)c3)n2)c(F)c1` [Compound 11, methyl N-[[5-[1-(4-ethoxy-2,6-difluorophenyl)-1H-pyrazol-3-yl]-2-methylphenyl]methyl]carbamate] displayed a melting point of 118 to 119 °C. The compound also returned a pest or weed control at 10 ppm in data set [2] of 100%. Besides, the pest or weed control at 10 ppm in data set [5] turned out to be 100%.
Take `COC(=O)NCc1cc(-c2ccn(-c3c(F)cc(Cl)cc3F)n2)ccc1C` [Compound 6, methyl N-[[5-[1-(4-chloro-2,6-difluorophenyl)-1H-pyrazol-3-yl]-2-methylphenyl]methyl]carbamate]: the melting point fell in the range of 148 to 149 °C. The pest or weed control at 10 ppm in data set [1] turned out to be 0%. The pest or weed control at 10 ppm in data set [2] is 100%. In addition, the pest or weed control at 10 ppm in data set [3] stood at 0%. The same compound had a pest or weed control at 10 ppm in data set [4] of 7%. The pest or weed control at 10 ppm in data set [5] amounted to 98%.
As to `COC(=O)NCc1cc(-c2cn(-c3c(F)cc(I)cc3F)nn2)ccc1C` [Compound 125], the melting point is 166 to 170 °C. The compound further yielded a pest or weed control at 10 ppm in data set [2] of 0%. This compound also displayed a pest or weed control at 10 ppm in data set [5] of 68%.
Compound `COC(=O)NCc1cc(-c2cnn(-c3c(F)cc(C(F)(F)F)cc3F)n2)ccc1C` [Compound 141] displayed a melting point of 138 to 142 °C. Further, the pest or weed control at 10 ppm in data set [2] is 100%. This compound had a pest or weed control at 10 ppm in data set [5] of 99%.
Compound `COC(=O)NCc1cc(-c2cnn(-c3c(F)cc(C4CC4)cc3F)n2)ccc1C` [Compound 113] displayed a melting point of 107 to 111 °C. Besides, the pest or weed control at 10 ppm in data set [2] was 100%. In data set [5], this compound gave a pest or weed control at 10 ppm of 100%.
In turn, `COC(=O)NCc1cc(-c2cn(-c3c(F)cc(F)cc3Cl)nn2)ccc1C` [Compound 122] came in with a melting point of 125 to 129 °C. In data set [1], this compound returned a pest or weed control at 250 ppm of 0%. In data set [2], this compound had a pest or weed control at 250 ppm of 100%. Moreover, the pest or weed control at 250 ppm in data set [3] was determined as 0%. For the same compound, in data set [4], the pest or weed control at 250 ppm turned out to be 71%. In addition, the pest or weed control at 250 ppm in data set [5] came to 99%.
`COC(=O)NCc1cc(-c2cn(-c3c(F)cc(OC)cc3F)nn2)ccc1C` [Compound 130] displayed a melting point of 146 to 150 °C. In data set [2], this compound came in with a pest or weed control at 10 ppm of 0%. The pest or weed control at 10 ppm in data set [5] was determined as 68%.
Regarding `COC(=O)NCc1cc(-c2cnn(-c3c(F)cc(Br)cc3F)n2)ccc1C` [Compound 114], the melting point fell in the range of 136 to 140 °C. Further, the pest or weed control at 10 ppm in data set [2] amounted to 100%. In addition, the pest or weed control at 10 ppm in data set [5] worked out at 100%.
Compound `COC(=O)NCc1cc(-c2cn(-c3c(Br)cc(OC)cc3Br)nn2)ccc1C` [Compound 128] yielded a melting point of 167 to 171 °C. Also, the pest or weed control at 10 ppm in data set [2] is 0%. This compound also had a pest or weed control at 10 ppm in data set [5] of 0%.
Regarding `COC(=O)NCc1cc(-c2ncn(-c3c(F)cc(Br)cc3F)n2)ccc1C` [Compound 104], the melting point lay within 175 to 179 °C. The pest or weed control at 10 ppm in data set [2] was 90%. Also, the pest or weed control at 10 ppm in data set [5] worked out at 100%.
Turning to `COC(=O)NCc1cc(-c2ccn(-c3c(F)cc(OC(F)F)cc3F)n2)ccc1C` [Compound 15, methyl N-[[5-[1-[4-(difluoromethoxy)-2,6-difluorophenyl]-1H-pyrazol-3-yl]-2-methylphenyl]methyl]carbamate], the melting point lay in the range of 102 to 103 °C. In addition, in data set [1], the pest or weed control at 10 ppm came out at 0%. Also, the pest or weed control at 10 ppm in data set [2] was determined as 100%. In addition, the pest or weed control at 10 ppm in data set [3] amounted to 69%. In data set [4], the pest or weed control at 10 ppm came to 0%. The pest or weed control at 10 ppm in data set [5] came to 99%.
As for `COC(=O)NCc1cc(-c2cn(-c3c(F)cc(Cl)cc3F)nn2)ccc1C` [Compound 121, methyl N-[[5-[1-(4-chloro-2,6-difluorophenyl)-1H-1,2,3-triazol-4-yl]-2-methylphenyl]methyl]carbamate], the melting point lay in the range of 159 to 163 °C. This compound had a pest or weed control at 10 ppm in data set [2] of 0%. In data set [5], the pest or weed control at 10 ppm stood at 68%.
The corresponding values for `COC(=O)NCc1cc(-c2cnn(-c3c(F)cc(I)cc3F)n2)ccc1C` [Compound 116] are 154 to 158 °C, 100% and 100%.
Taken in the same sequence, the figures for `COC(=O)NCc1cc(-c2cn(-c3c(Cl)cc(OC)cc3Cl)nn2)ccc1C` [Compound 123] were 148 to 152 °C, 0% and 0%.
As for `COC(=O)NCc1cc(-c2ccn(-c3c(F)cc(C(C)C)cc3F)n2)ccc1C` [Compound 63, methyl N-[[5-[1-[2,6-difluoro-4-(1-methylethyl)phenyl]-1H-pyrazol-3-yl]-2-methylphenyl]methyl]carbamate], the pest or weed control at 10 ppm in data set [1] is 0%; in data set [2], 100%; in data set [3], 98%; in data set [4], 26%; in data set [5] it was 100%.
Compound `COC(=O)NCc1cc(-c2cc(C)n(-c3c(F)cccc3F)n2)ccc1C` [Compound 100] gave a melting point of 125 to 129 °C. The same compound had a pest or weed control at 10 ppm in data set [2] of 0%. Further, the pest or weed control at 10 ppm in data set [5] worked out at 0%.
As to `COC(=O)NCc1cc(-c2cnn(-c3c(F)cc([N+](=O)[O-])cc3F)n2)ccc1C` [Compound 118, methyl N-[[5-[2-(2,6-difluoro-4-nitrophenyl)-2H-1,2,3-triazol-4-yl]-2-methylphenyl]methyl]carbamate], the pest or weed control at 250 ppm in data set [1] is 0%; in data set [2] it was 0%; in data set [3] it was 0%; in data set [4], 1%; in data set [5] it was 0%.
Take `COC(=O)NCc1cc(-c2ncn(-c3c(F)cc(C(F)(F)F)cc3F)n2)ccc1C` [Compound 103]: the melting point was 168 to 172 °C. Moreover, the pest or weed control at 10 ppm in data set [2] amounted to 86%. In data set [5], this compound yielded a pest or weed control at 10 ppm of 100%.
The corresponding values for `COC(=O)NCc1cc(-c2cn(-c3c(F)cc(C)cc3F)nn2)ccc1C` [Compound 119] are 143 to 147 °C, 0% and 100%.
Compound `COC(=O)NCc1cc(-c2cn(-c3c(Br)cc(OC)cc3[N+](=O)[O-])nn2)ccc1C` [Compound 129] registered a melting point of 158 to 162 °C. The pest or weed control at 10 ppm in data set [2] turned out to be 0%. In data set [5], this compound came in with a pest or weed control at 10 ppm of 0%.
Consider `COC(=O)NCc1cc(-c2ccn(-c3c(F)cccc3F)n2)ccc1C` [Compound 4, methyl N-[[5-[1-(2,6-difluorophenyl)-1H-pyrazol-3-yl]-2-methylphenyl]-methyl]carbamate], for which the melting point is 142 to 143 °C. The same compound returned a pest or weed control at 10 ppm in data set [2] of 100%. This compound also returned a pest or weed control at 10 ppm in data set [5] of 90%.

These data come from US11634393B2, “Substituted tolyl fungicides” (FMC CORPORATION, priority 2018, dated 2023).
